In US20250129078A1, “ERBB2 INHIBITORS” (Cogent Biosciences, Inc., priority 2023, published 2025):
Counter-ions that a name gives are not always drawn.

target: EGFR WT (Homo sapiens (Human), UniProt P00533); assay: ErbB enzyme assay (CisBio HTRF-KinEASE-TK), EGFR WT; assay type: biochemical; details: ATP at Km (25 μM), 1 h incubation
Summary of the method: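 Tyrosine kinase HTRF, 1 h RT reaction → quench (Sa-XL665/TK-Ab-Cryptate) → 1 h RT → 655/620 ratio.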

EGFR WT, sequence (P00533 25-1210): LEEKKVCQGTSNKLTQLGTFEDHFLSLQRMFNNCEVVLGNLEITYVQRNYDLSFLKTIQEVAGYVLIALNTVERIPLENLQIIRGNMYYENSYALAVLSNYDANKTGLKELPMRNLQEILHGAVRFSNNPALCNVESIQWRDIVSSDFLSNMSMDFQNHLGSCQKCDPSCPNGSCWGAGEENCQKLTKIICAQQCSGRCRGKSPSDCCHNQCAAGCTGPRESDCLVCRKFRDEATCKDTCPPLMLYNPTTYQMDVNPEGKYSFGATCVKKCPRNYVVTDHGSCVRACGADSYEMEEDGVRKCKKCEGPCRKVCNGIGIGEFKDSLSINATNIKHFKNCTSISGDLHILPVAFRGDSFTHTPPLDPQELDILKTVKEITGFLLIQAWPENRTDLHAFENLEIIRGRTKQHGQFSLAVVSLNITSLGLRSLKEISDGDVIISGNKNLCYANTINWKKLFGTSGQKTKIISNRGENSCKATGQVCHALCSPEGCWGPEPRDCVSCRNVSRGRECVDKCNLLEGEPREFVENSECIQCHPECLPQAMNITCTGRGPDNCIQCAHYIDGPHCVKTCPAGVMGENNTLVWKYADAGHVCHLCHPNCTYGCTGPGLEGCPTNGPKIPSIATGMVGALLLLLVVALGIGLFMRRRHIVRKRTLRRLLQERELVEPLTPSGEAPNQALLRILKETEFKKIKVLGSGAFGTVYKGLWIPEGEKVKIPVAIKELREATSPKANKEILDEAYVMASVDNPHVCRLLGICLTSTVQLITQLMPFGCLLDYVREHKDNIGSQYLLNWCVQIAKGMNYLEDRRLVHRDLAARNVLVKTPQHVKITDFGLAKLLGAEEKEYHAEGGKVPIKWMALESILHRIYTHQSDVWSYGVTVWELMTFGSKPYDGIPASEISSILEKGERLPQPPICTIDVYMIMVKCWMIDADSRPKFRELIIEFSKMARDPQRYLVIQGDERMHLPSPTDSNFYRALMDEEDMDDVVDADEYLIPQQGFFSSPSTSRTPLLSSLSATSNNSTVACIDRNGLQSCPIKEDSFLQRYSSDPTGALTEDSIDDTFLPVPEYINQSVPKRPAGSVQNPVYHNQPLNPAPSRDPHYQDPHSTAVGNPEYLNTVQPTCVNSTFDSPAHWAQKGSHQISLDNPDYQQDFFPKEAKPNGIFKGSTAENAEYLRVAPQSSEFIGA

SMILES	IC50
C=CC(=O)N[C@H]1CN(c2ccc3ncnc(Nc4ccc(Oc5ccc6c(c5)nnn6C)c(C)c4F)c3n2)CC[C@H]1C [Compound 341, N-((3R,4R)-1-(4-((2-fluoro-3-methyl-4-((1-methyl-1H-benzo[d][1,2,3]triazol-5-yl)oxy)phenyl)amino)pyrido[3,2-d]pyrimidin-6-yl)-4-methylpiperidin-3-yl)acrylamide]	≥ 1000 nM
Cc1cc(Nc2ncnc3ccc(N4CCN(C(=O)/C=C/C(F)F)[C@@H](C)C4)nc23)ccc1Oc1ccc2c(c1)nnn2C [Compound 369, (S,E)-4,4-difluoro-1-(2-methyl-4-(4-((3-methyl-4-((1-methyl-1H-benzo[d][1,2,3]triazol-5-yl)oxy)phenyl)amino)pyrido[3,2-d]pyrimidin-6-yl)piperazin-1-yl)but-2-en-1-one]	100 to 500 nM
C=CC(=O)N1CCN(c2ncc3ncnc(Nc4ccc(Oc5ccn6ncnc6c5)c(C)c4)c3c2F)CC1 [Compound 100, 1-(4-(4-((4-([1,2,4]triazolo[1,5-a]pyridin-7-yloxy)-3-methylphenyl)amino)-5-fluoropyrido[3,4-d]pyrimidin-6-yl)piperazin-1-yl)prop-2-en-1-one]	500 to 1000 nM
C=CC(=O)N[C@@H]1CCN(c2ncc3ncnc(Nc4ccc(Oc5ccc6c(c5)nnn6C)c(C)c4)c3n2)C1 [Compound 153, (R)-N-(1-(8-((3-methyl-4-((1-methyl-1H-benzo[d][1,2,3]triazol-5-yl)oxy)phenyl)amino)pyrimido [5,4-d]pyrimidin-2-yl)pyrrolidin-3-yl)acrylamide]	100 to 500 nM
C=C(F)C(=O)N1CCN(c2ccc3ncnc(Nc4ccc(Oc5ccc6c(c5)nnn6C)c(C)c4)c3n2)C[C@@H]1CC#N [Compound 85, (S)-2-(1-(2-fluoroacryloyl)-4-(4-((3-methyl-4-((1-methyl-1H-benzo[d][1,2,3]triazol-5-yl)oxy)phenyl)amino)pyrido[3,2-d]pyrimidin-6-yl)piperazin-2-yl)acetonitrile]	500 to 1000 nM
C=CC(=O)N[C@H]1CCN(c2ccc3ncnc(Nc4ccc(Oc5ccc6c(c5)nnn6C)c(C)c4F)c3n2)C[C@@H]1F [Compound 280, N-((3S,4S)-3-fluoro-1-(4-((2-fluoro-3-methyl-4-((1-methyl-1H-benzo[d][1,2,3]triazol-5-yl)oxy)phenyl)amino)pyrido[3,2-d]pyrimidin-6-yl)piperidin-4-yl)acrylamide]	100 to 500 nM
C=CC(=O)N1CCC(Oc2ncc3ncnc(Nc4ccc(Oc5ccc6c(c5)ncn6C(F)F)c(C)c4)c3n2)CC1 [Compound 380, 1-(4-((8-((4-((1-(difluoromethyl)-1H-benzo[d]imidazol-5-yl)oxy)-3-methylphenyl)amino)pyrimido[5,4-d]pyrimidin-2-y1)oxy)piperidin-1-yl)prop-2-en-1-one]	< 50 nM
C=CC(=O)N1C2C=C(c3ccc4ncnc(Nc5cc(C)c(Oc6ccc7c(c6)nnn7C)cc5OC)c4n3)CC1CCC2 (centres unmarked) [Compound 413, 1-(3-(4-((2-methoxy-5-methyl-4-((1-methyl-1H-benzo[d][1,2,3]triazol-5-yl)oxy)phenyl)amino)pyrido[3,2-d]pyrimidin-6-yl)-9-azabicyclo[3.3.1]non-2-en-9-yl)prop-2-en-1-one trifluoroacetate]	≥ 1000 nM
C=CC(=O)N1CCN(c2ccc3ncnc(Nc4cc(Cl)c(Oc5ccc6c(c5)nnn6C)cc4F)c3n2)CC1 [Compound 244, 1-(4-(4-((5-chloro-2-fluoro-4-((1-methyl-1H-benzo[d][1,2,3]triazol-5-yl)oxy)phenyl)amino)pyrido[3,2-d]pyrimidin-6-yl)piperazin-1-yl)prop-2-en-1-one]	100 to 500 nM
C=CC(=O)N[C@H]1CCN(c2ccc3ncnc(Nc4ccc(Oc5ccc6c(c5)nnn6C)c(C)c4F)c3n2)C[C@H]1F [Compound 281, N-((3R,4S)-3-fluoro-1-(4-((2-fluoro-3-methyl-4-((1-methyl-1H-benzo[d][1,2,3]triazol-5-yl)oxy)phenyl)amino)pyrido[3,2-d]pyrimidin-6-yl)piperidin-4-yl)acrylamide]	< 50 nM
C=CC(=O)N1C(C)(C)CC(c2ccc3ncnc(Nc4ccc(Oc5ccc6c(c5)nnn6C)c(C)c4)c3n2)CC1(C)C [Compound 399, 1-(2,2,6,6-tetramethyl-4-(4-((3-methyl-4-((1-methyl-1H-benzo[d][1,2,3]triazol-5-yl)oxy)phenyl)amino)pyrido[3,2-d]pyrimidin-6-yl)piperidin-1-yl)prop-2-en-1-one]	≥ 1000 nM
C=CC(=O)N1[C@@H](C)CN(c2ncc3ncnc(Nc4ccc(Oc5ccc6c(c5)nnn6C)c(C)c4)c3n2)C[C@@H]1C [Compound 184, 1-((2S,6S)-2,6-dimethyl-4-(8-((3-methyl-4-((1-methyl-1H-benzo[d][1,2,3]triazol-5-yl)oxy)phenyl)amino)pyrimido[5,4-d]pyrimidin-2-yl)piperazin-1-yl)prop-2-en-1-one]	≥ 1000 nM
C=CC(=O)N1CCN(c2ncc3ncnc(Nc4ccc(Oc5cnn6ccnc6c5)c(C)c4F)c3n2)CC1 [Compound 237, 1-(4-(8-((2-fluoro-4-(imidazo[1,2-b]pyridazin-7-yloxy)-3-methylphenyl)amino)pyrimido[5,4-d]pyrimidin-2-yl)piperazin-1-yl)prop-2-en-1-one]	< 50 nM
C=CC(=O)N[C@H]1CCN(c2ccc3ncnc(Nc4ccc(Oc5ccc6c(c5)nnn6C)c(C)c4F)c3n2)CC1(C)C [Compound 343, (S)-N-(1-(4-((2-fluoro-3-methyl-4-((1-methyl-1H-benzo[d][1,2,3]triazol-5-yl)oxy)phenyl)amino)pyrido[3,2-d]pyrimidin-6-yl)-3,3-dimethylpiperidin-4-yl)acrylamide]	100 to 500 nM
Cc1cc(Nc2ncnc3cnc(N4CCN(C(=O)/C=C/C(F)F)CC4)nc23)ccc1Oc1ccc2c(c1)nnn2C [Compound 216, 4,4-difluoro-1-(4-(8-((3-methyl-4-((1-methyl-1H-benzo[d][1,2,3]triazol-5-yl)oxy)phenyl)amino)pyrimido [5,4-d]pyrimidin-2-yl)piperazin-1-yl)but-2-en-1-one]	50 to 100 nM
C=CC(=O)N1CCN(c2ccc3ncnc(Nc4cc(F)c(Oc5ccc6c(c5)nnn6C)c(Cl)c4)c3n2)C[C@H]1C [Compound 252, (R)-1-(4-(4-((3-chloro-5-fluoro-4-((1-methyl-1H-benzo[d][1,2,3]triazol-5-yl)oxy)phenyl)amino)pyrido[3,2-d]pyrimidin-6-yl)-2-methylpiperazin-1-yl)prop-2-en-1-one]	50 to 100 nM
C=CC(=O)N1CCN(c2ccc3ncnc(Nc4ccc(Oc5ccc6c(c5)nnn6C)c(C)c4)c3n2)C2CC21 (centres unmarked) [Compound 75, 1-(5-(4-((3-methyl-4-((1-methyl-1H-benzo[d][1,2,3]triazol-5-yl)oxy)phenyl)amino)pyrido[3,2-d]pyrimidin-6-yl)-2,5-diazabicyclo[4.1.0]heptan-2-yl)prop-2-en-1-one]	< 50 nM
C=CC(=O)N1CCN(c2ccc3ncnc(Nc4ccc(Oc5ccc6c(c5)nnn6C)c(C)c4)c3n2)C[C@H]1C [Compound 73, (R)-1-(2-methyl-4-(4-((3-methyl-4-((1-methyl-1H-benzo[d][1,2,3]triazol-5-yl)oxy)phenyl)amino)pyrido[3,2-d]pyrimidin-6-yl)piperazin-1-yl)prop-2-en-1-one]	100 to 500 nM
C=CC(=O)N1CCN(c2ncc3ncnc(Nc4ccc(Oc5ccc6c(c5)nnn6C)c(C)c4)c3n2)C[C@H]1CF (single isomer, unassigned) [Compound 198]	100 to 500 nM
C=CC(=O)N1CCN(c2ccc3ncnc(Nc4ccc(Oc5cc6nnn(C)c6c(F)c5C)c(C)c4F)c3n2)C[C@H]1C [Compound 293, (R)-1-(4-(4-((2-fluoro-4-((7-fluoro-1,6-dimethyl-1H-benzo[d][1,2,3]triazol-5-yl)oxy)-3-methylphenyl)amino)pyrido[3,2-d]pyrimidin-6-yl)-2-methylpiperazin-1-yl)prop-2-en-1-one]	100 to 500 nM
C=CC(=O)N1CC2CCC1CN2c1ncc2ncnc(Nc3ccc(Oc4ccc5c(c4)nnn5C)c(C)c3)c2n1 (centres unmarked) [Compound 62, 1-(5-(8-((3-methyl-4-((1-methyl-1H-benzo[d][1,2,3]triazol-5-yl)oxy)phenyl)amino)pyrimido[5,4-d]pyrimidin-2-yl)-2,5-diazabicyclo[2.2.2]octan-2-yl)prop-2-en-1-one]	< 50 nM
C=CC(=O)N1CCN(c2nc3c(Nc4ccc(Oc5cc(F)c6c(c5)nnn6C)c(C)c4F)ncnc3cc2OC)CC1 [Compound 99, 1-(4-(4-((2-fluoro-4-((7-fluoro-1-methyl-1H-benzo[d][1,2,3]triazol-5-yl)oxy)-3-methylphenyl)amino)-7-methoxypyrido[3,2-d]pyrimidin-6-yl)piperazin-1-yl)prop-2-en-1-one]	< 50 nM
C=CC(=O)N[C@]1(C)CCN(c2ccc3ncnc(Nc4ccc(Oc5ccc6c(c5)nnn6C)c(C)c4)c3n2)C1 [Compound 263, (R)-N-(3-methyl-1-(4-((3-methyl-4-((1-methyl-1H-benzo[d][1,2,3]triazol-5-yl)oxy)phenyl)amino)pyrido[3,2-d]pyrimidin-6-yl)pyrrolidin-3-yl)acrylamide]	100 to 500 nM
C=CC(=O)N1CCN(c2ncc3ncnc(Nc4ccc(Oc5cc(F)c6c(c5)nnn6C)c(C)c4F)c3n2)C[C@@H]1C1CC1 [Compound 192, (S)-1-(2-cyclopropyl-4-(8-((2-fluoro-4-((7-fluoro-1-methyl-1H-benzo[d][1,2,3]triazol-5-yl)oxy)-3-methylphenyl)amino)pyrimido[5,4-d]pyrimidin-2-y1)piperazin-1-yl)prop-2-en-1-one]	500 to 1000 nM
C=C(F)C(=O)N1CCN(c2ncc3ncnc(Nc4ccc(Oc5ccc6c(c5)nnn6C)c(C)c4)c3n2)C[C@@H]1CF (single isomer, unassigned) [Compound 218]	≥ 1000 nM
C=CC(=O)N1CCN(c2ncc3ncnc(Nc4ccc(Oc5ccc6c(c5)nnn6C)c(C)c4F)c3n2)CC12CC2 [Compound 8, 1-(7-(8-((2-fluoro-3-methyl-4-((1-methyl-1H-benzo[d][1,2,3]triazol-5-yl)oxy)phenyl)amino)pyrimido [5,4-d]pyrimidin-2-yl)-4,7-diazaspiro[2.5]octan-4-yl)prop-2-en-1-one]	< 50 nM
